From patent US11702666B2, “Cell-based assay for determining activity in the retinoblastoma pathway” (Medical Diagnostic Laboratories, LLC, priority 2017, dated 2023)
Entries after “also recorded” stand apart in the source; their conditions may differ. Blank lines part the entries; values can stand above or below the molecule they belong to.

What was measured:
Rb/E2F1-Dp-1 complex [1] = experiment: CDK6 mutant activity / drug resistance in NanoBiT assay, stable cell line #11; type: cell-based, human; settings: for Luc. activity (/wt): relative to WT; for Luc activity (/wt): CDK6 mutants, compared to the WT (being 100%)
Procedure: (§1) A linear expression cassette of mutated CDK4 or CDK6 was generated by PCR mediated overlapping extension method. A pair of forward and reverse primers containing the targeted mutations was designed. The mutated codon was located in the middle of a primer flanked by 18-21 nucleotides on each side. Two PCRs (named as PCR #1 and PCR #2 in FIG. 1) were performed using UF-CMV forward and mutated reverse primers, or mutated forward and BGH-UR primers. The PCR products were cleaned up by ExoSAP-IT® (Affymetrix) to remove unconsumed dNTPs and primers. The treated PCR products were mixed together followed by dilution with water. A second round of PCR was performed using the diluted PCR mixture, and the UF and UR primers (FIG. 1). The amplified products were gel-purified. The DNA concentration was quantitated by the optical density at 260 nm using Nanodrop. The targeted mutations were incorporated in the CDK4 or CDK6 genes during the PCR mediated overlapping extension method. The introduced mutations were confirmed by the DNA sequencing.
(§2) To examine the ability of the assay to detect variants in CDK4 or CDK6 that affect function, kinase dead mutants and COSMIC (Catalogue Of Somatic Mutations in cancer) unknown mutants were created. For comparison, hyperactive CDK4 or CDK6 mutants known to be hyperactive due to less binding to natural inhibitor p16 were also created. The mutations in CDK4 or CDK6 were created by site-directed mutagenesis. WT or mutated CDK4 or CDK6 along with the CyclinD1 and SB-Rb were co-transfected, under similar conditions as previously indicated (see FIG. 9).
(§3) Computer modeling was used to reveal the drug-binding pocket and predict drug-resistant mutants. The mutations in CDK4 and CDK6 were created by site-directed mutagenesis. WT or mutated CDK4 or CDK6 along with the CyclinD1 and SB-Rb was co-transfected into #11 cell line, under the same conditions as previously indicated. […] Dose response curves are presented on FIG. 13A and FIG. 13B. Activity of other mutants was very similar to the WT or KD.
(§4) CDK4 and CDK6 mutants with known function and unknown function taken from the COSMIC database were analyzed in the present assay and are summarized in Table 7A and Table 7B. The mutants were classified according to their activity. Table 7A and Table 7B also show the number of counts per mutant in the COSMIC database, type of cancer, and luciferase activity compared to the WT (being 100%).

Rb/E2F1-Dp-1 complex [2] = settings: CDK4 mutants, literature ref.; Hyper = hyperactive, KD = kinase dead; cited from earlier work
Rb/E2F1-Dp-1 complex [3] = experiment: CDK4 mutant activity / drug resistance in NanoBiT assay, stable cell line #11; type: cell-based, human; settings: CDK4 mutants, compared to the WT (being 100%)
Procedure: as §1, §2
To examine the specificity of the assay, particular CDK4 kinase dead mutants were created. Modifications to D158 were made by changing aspartate to nonpolar alanine (D158A) or positively charged arginine (D158R). […] The mutations in CDK4 were created by site-directed mutagenesis. WT or mutated CDK4 along with the CyclinD1 and SB-Rb was co-transfected into the #11 cell line, under the same conditions as previously indicated. […] Kinase dead mutants have the high signal due to inability to phosphorylate Rb.
as §3, §4

CDK4 = target: T1, CDK4 (Homo sapiens, UniProt P11802); experiment: p16 activity assay with CDK4 (NanoBiT, cell line #11); type: cell-based; settings: for signal of p16 mutant (in words): loss of function mutants; for Observed function: p16 (CDKN2A) mutants, with CDK4
T1 construct: expressed in transfected cells; host or cells: HEK293 CDK4/CDK6 double-knockout cells stably expressing E2F1-Dp-1-LB (clone #11); early experiments in plain HEK293
T1 sequence (P11802 2-303): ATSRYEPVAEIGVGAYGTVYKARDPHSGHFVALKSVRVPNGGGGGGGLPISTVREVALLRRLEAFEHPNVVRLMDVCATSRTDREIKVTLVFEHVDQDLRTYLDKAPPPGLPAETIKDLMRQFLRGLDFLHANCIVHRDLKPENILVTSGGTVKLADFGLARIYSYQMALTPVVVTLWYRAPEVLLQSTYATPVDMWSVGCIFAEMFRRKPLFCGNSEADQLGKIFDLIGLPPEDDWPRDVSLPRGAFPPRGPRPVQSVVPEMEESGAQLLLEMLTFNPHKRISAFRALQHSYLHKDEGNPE
From the text: We developed an assay that could measure the interaction between Rb, E2F1 and Dp-1. When the Rb and E2F1 proteins are in close proximity or in complex, a light signal is observed. For the purpose of the assay, split-luciferase complementation was used to measure the interaction between Rb and E2F1, which served as a surrogate measure of CDK4/6 activity and the ability of CDK4/6 to respond to the natural inhibitor p16. The NanoBiT assay system by Promega (Madison, Wis.; Dixon et al., 2015, ACS ChemBiol) was used in the split luciferase complementation design. FIG. 24 depicts a design of a signal system to measure p16 activity. Under basal conditions inside the cell, Rb is active and interacts with the E2F1/Dp-1 heterodimer. However, in the presence of the CDK4 or CDK6, Rb gets phosphorylated and released from the interacting complex. In the presence of the natural inhibitor p16, CDK4/6 is no longer available to phosphorylate Rb and thus promoting the Rb/E2F1-Dp-1 complex formation.
For the purpose of the current assay, the stable cell line #11 that we generated for the CDK activity assay was used and described above. HEK293 CDK DKO cells containing E2F1-Dp-1-LB was transiently transfected with CDK4/CDK6, CyclinD1, and SB-Rb. The transfected cells were then exposed to the natural inhibitor p16 (FIG. 25). When CDK4 or CDK6 is present, a decrease in activity was observed as Rb gets phosphorylated resulting in no Rb/E2F1-Dp-1 interaction. […] The data presented was a sample experiment where each condition was performed in triplicate and represented mean+SD.
The conditions of the assay were optimized by using different p16 amounts and cell numbers (FIGS. 25A and 25B). Based on the data generated, it was decided that using 0.2×10^6 cells/ml and 10 ng of p16 would be preferable.
To examine the ability of the assay to detect variants in CDKN2A that affect function, known loss of function mutants and unknown COSMIC mutants were created. Wild-type or mutated CDKN2A were prepared in a manner similar to that previously indicated. […] Therefore the p16 activity assay is capable of determining the relative activity level of p16 mutants. The data provided is in Luminescence (RLU) of a single experiment with each condition performed in triplicate and represent average+SD. Summary Table 13 reports p16 mutants tested.
In addition to check functional state of p16 mutants, p16 activity assay can be used to look at p16 inhibition response of different CDK4 and CDK6 mutants. Different response of WT CDK4 and CDK6 and hyperactive mutants of CDK4 (R24A) and CDK6 (R31C) is shown on FIG. 28. […] The p16 activity assay is so sensitive and specific that hyperactive CDK4 and CDK6 mutants can show different response to mutant p16.

[4] = predicted drug resistant CDK6 mutants

Molecule: CDK6 T107K: predicted drug resistant CDK6 mutant
Luc. activity (/wt) (Rb/E2F1-Dp-1 complex [1]; [4]): 95%
Observed drug resist. (Rb/E2F1-Dp-1 complex [1]; predicted drug resistant CDK6 mutants, Palbociclib/Ribociclib): showed drug resistance; also recorded: Resistant

Molecule: CDK6 K43M: CDK6 mutant, literature kinase dead
Luc activity (/wt) (Rb/E2F1-Dp-1 complex [1]): 468%

Molecule: CDK6 P199L: CDK6 mutant from COSMIC database
Luc activity (/wt) (Rb/E2F1-Dp-1 complex [1]): 565%

Molecule: CDK6 D104N: predicted drug resistant CDK6 mutant
Luc. activity (/wt) (Rb/E2F1-Dp-1 complex [1]; [4]): 138%

Molecule: CDK6 R220C: CDK6 mutant from COSMIC database
Luc activity (/wt) (Rb/E2F1-Dp-1 complex [1]): 164%

Molecule: CDK6 V27A: predicted drug resistant CDK6 mutant
Luc. activity (/wt) (Rb/E2F1-Dp-1 complex [1]; [4]): 149%

Molecule: CDK6 D163N: CDK6 mutant, literature kinase dead
Luc activity (/wt) (Rb/E2F1-Dp-1 complex [1]): 408%

Molecule: CDK6 L152V: predicted drug resistant CDK6 mutant
Luc. activity (/wt) (Rb/E2F1-Dp-1 complex [1]; [4]): 114%

Molecule: CDK6 R220S: CDK6 mutant from COSMIC database
Luc activity (/wt) (Rb/E2F1-Dp-1 complex [1]): 271%

Molecule: CDK6 R144H: CDK6 mutant from COSMIC database
Luc activity (/wt) (Rb/E2F1-Dp-1 complex [1]): 267%

Molecule: CDK6 F98I: predicted drug resistant CDK6 mutant
Luc. activity (/wt) (Rb/E2F1-Dp-1 complex [1]; [4]): 176%

Molecule: CDK6 I19L: predicted drug resistant CDK6 mutant
Luc. activity (/wt) (Rb/E2F1-Dp-1 complex [1]; [4]): 129%

Molecule: CDK6 H100Y: predicted drug resistant CDK6 mutant
Luc. activity (/wt) (Rb/E2F1-Dp-1 complex [1]; [4]): 126%

Molecule: CDK6 A41V: predicted drug resistant CDK6 mutant
Luc. activity (/wt) (Rb/E2F1-Dp-1 complex [1]; [4]): 132%

B1: CDK4 K22A: CDK4 mutant, literature hyperactive (protein, UniProt P11802 2-303, looked up, variant K22A)
Cyclin-dependent kinase 4: ATSRYEPVAEIGVGAYGTVYAARDPHSGHFVALKSVRVPNGGGGGGGLPISTVREVALLRRLEAFEHPNVVRLMDVCATSRTDREIKVTLVFEHVDQDLRTYLDKAPPPGLPAETIKDLMRQFLRGLDFLHANCIVHRDLKPENILVTSGGTVKLADFGLARIYSYQMALTPVVVTLWYRAPEVLLQSTYATPVDMWSVGCIFAEMFRRKPLFCGNSEADQLGKIFDLIGLPPEDDWPRDVSLPRGAFPPRGPRPVQSVVPEMEESGAQLLLEMLTFNPHKRISAFRALQHSYLHKDEGNPE
Reported activity (Rb/E2F1-Dp-1 complex [2]): Hyper
Luc. activity (/wt) (Rb/E2F1-Dp-1 complex [3]): 67.5%

signal of p16 mutant (in words) (CDK4): close to the baseline
B2: p16 A20P: p16 (CDKN2A) mutant (protein)
chain: MEPAAGSSMEPSADWLATAPARGRVEEVRALLEAGALPNAPNSYGRRPIQVMMMGSARVAELLLLHGAEPNCADPATLTRPVHDAAREGFLDTLVVLHRAGARLDVRDAWGRLPVDLAEELGHRDVARYLRAAAGGTRGSNHARIDAAEGPSDIPD

signal of p16 mutant (in words) (CDK4): close to the baseline
B3: p16 P114L: p16 (CDKN2A) mutant (protein)
chain: MEPAAGSSMEPSADWLATAAARGRVEEVRALLEAGALPNAPNSYGRRPIQVMMMGSARVAELLLLHGAEPNCADPATLTRPVHDAAREGFLDTLVVLHRAGARLDVRDAWGRLLVDLAEELGHRDVARYLRAAAGGTRGSNHARIDAAEGPSDIPD

Observed function (CDK4): Normal
B4: p16 A36G: p16 (CDKN2A) mutant (protein)
chain: MEPAAGSSMEPSADWLATAAARGRVEEVRALLEAGGLPNAPNSYGRRPIQVMMMGSARVAELLLLHGAEPNCADPATLTRPVHDAAREGFLDTLVVLHRAGARLDVRDAWGRLPVDLAEELGHRDVARYLRAAAGGTRGSNHARIDAAEGPSDIPD

signal of p16 mutant (in words) (CDK4): close to the baseline
B5: p16 V126D: p16 (CDKN2A) mutant (protein)
chain: MEPAAGSSMEPSADWLATAAARGRVEEVRALLEAGALPNAPNSYGRRPIQVMMMGSARVAELLLLHGAEPNCADPATLTRPVHDAAREGFLDTLVVLHRAGARLDVRDAWGRLPVDLAEELGHRDDARYLRAAAGGTRGSNHARIDAAEGPSDIPD

Observed function (CDK4): Reduced
B6: p16 G101W: p16 (CDKN2A) mutant (protein)
chain: MEPAAGSSMEPSADWLATAAARGRVEEVRALLEAGALPNAPNSYGRRPIQVMMMGSARVAELLLLHGAEPNCADPATLTRPVHDAAREGFLDTLVVLHRAWARLDVRDAWGRLPVDLAEELGHRDVARYLRAAAGGTRGSNHARIDAAEGPSDIPD

Observed function (CDK4): Normal
B7: p16 D14G: p16 (CDKN2A) mutant (protein)
chain: MEPAAGSSMEPSAGWLATAAARGRVEEVRALLEAGALPNAPNSYGRRPIQVMMMGSARVAELLLLHGAEPNCADPATLTRPVHDAAREGFLDTLVVLHRAGARLDVRDAWGRLPVDLAEELGHRDVARYLRAAAGGTRGSNHARIDAAEGPSDIPD

Observed function (CDK4): Normal
B8: p16 S56N: p16 (CDKN2A) mutant (protein)
chain: MEPAAGSSMEPSADWLATAAARGRVEEVRALLEAGALPNAPNSYGRRPIQVMMMGNARVAELLLLHGAEPNCADPATLTRPVHDAAREGFLDTLVVLHRAGARLDVRDAWGRLPVDLAEELGHRDVARYLRAAAGGTRGSNHARIDAAEGPSDIPD

Observed function (CDK4): Normal
B9: p16 D108N: p16 (CDKN2A) mutant (protein)
chain: MEPAAGSSMEPSADWLATAAARGRVEEVRALLEAGALPNAPNSYGRRPIQVMMMGSARVAELLLLHGAEPNCADPATLTRPVHDAAREGFLDTLVVLHRAGARLDVRNAWGRLPVDLAEELGHRDVARYLRAAAGGTRGSNHARIDAAEGPSDIPD

signal of p16 mutant (in words) (CDK4): close to the baseline
B10: p16 H83Y: p16 (CDKN2A) mutant (protein)
chain: MEPAAGSSMEPSADWLATAAARGRVEEVRALLEAGALPNAPNSYGRRPIQVMMMGSARVAELLLLHGAEPNCADPATLTRPVYDAAREGFLDTLVVLHRAGARLDVRDAWGRLPVDLAEELGHRDVARYLRAAAGGTRGSNHARIDAAEGPSDIPD
